Laboratory results as given in patent US20070149508A1, “Six membered heteroaromatic inhibitors targeting resistant kinase mutations” (TargeGen, Inc., priority 2005, published 2007).
Structures can show the parent of a compound that is named as a salt.

Tests used:
Abl (T315I) = target: T1, Abl (T315I) (Homo sapiens, UniProt P00519, T315I); test: Abl (T315I) Kinase Assay (KinaseGlo luminescent detection of residual ATP); format: biochemical; settings: Abl (T315I) IC50 (nM), Abl (T315I) (Upstate, 17 ng/well), Abltide 100 uM, ATP 500 nM, 60 minutes at 37° C.
T1 construct: purchased Upstate
Description: The assay was performed similarly to the Abl kinase assay. Abl (T315I) (Upstate, 17 ng/well); Abltide substrate (100 uM) and ATP (500 nM) comprised the reaction mixture. Compound was similarly diluted, and the reaction plate was incubated for 60 minutes at 37° C.

Abl kinase = Abl kinase (Homo sapiens, UniProt P00519); test: biochemical; settings: Abl IC50 (nM), Abl kinase (Invitrogen, 20 ng/well), Abltide 100 μM, ATP 500 nM, 37° C. for 60 minutes, top concentration 10 uM

SMILES | IC50 (Abl (T315I)) | IC50 (Abl kinase)
Nc1nc2ccc(/C=C/c3cnc(Nc4ccc(S(=O)(=O)N5CCNCC5CO)cc4)nc3)cc2s1 (stereo not shown) [(1-{[4-({5-[(E)-2-(2-amino-1,3-benzothiazol-6-yl)vinyl]pyrimidin-2-yl}amino)phenyl]sulfonyl}piperazin-2-yl)methanol] | 115 nM | 119 nM
O=S(=O)(c1ccc(Nc2ncc(/C=C/c3cccc(O)c3)cn2)cc1OC(F)(F)F)N1CCNCC1 [3-(2-{2-[4-(Piperazine-1-sulfonyl)-3-trifluoromethoxy-phenylamino]-pyrimidin-5-yl}-vinyl)-phenol] | 752 nM | 97 nM
O=C(Nc1cccc(/C=C/c2cnc(Nc3cccnc3)nc2)c1)c1cccc(C(F)(F)F)c1 [N-(3-{2-[2-(Pyridin-3-ylamino)-pyrimidin-5-yl]-vinyl}-phenyl)-3-trifluoromethyl-benzamide] | > 10000 nM | 148 nM
CN(C)CCN(C1CCNCC1)S(=O)(=O)c1ccc(Nc2ncc(/C=C/c3cccc4[nH]ccc34)cn2)cc1 [N-[2-(dimethylamino)ethyl]-4-({5-[(E)-2-(1H-indol-4-yl)vinyl]pyrimidin-2-yl}amino)-N-piperidin-4-ylbenzenesulfonamide] | 182 nM | 25 nM
NS(=O)(=O)c1cccc(/C=C/c2cnc(Nc3ccc(S(=O)(=O)C4CCNCC4)cc3)nc2)c1 [3-(2-{2-[4-(Piperidine-4-sulfonyl)-phenylamino]-pyrimidin-5-yl}-vinyl)-benzenesulfonamide Hydrochloride] | 2070 nM | 198 nM
O=S(=O)(c1ccc(Nc2ncc(/C=C/c3ccc(F)c4[nH]ccc34)cn2)cc1)C1CCNCC1 [5-((E)-2-(7-fluoro-1H-indol-4-yl)vinyl)-N-(4-(piperidin-ylsulfonyl)phenyl)pyrimidin-2-amine Hydrochloride] | 149 nM | 8 nM
O=S(=O)(c1ccc(Nc2ncc(/C=C/c3ccc4[nH]ccc4c3)cn2)cc1)C1CCNCC1 [{5-[2-(1H-Indol-5-yl)-vinyl]-pyrimidin-2-yl}-[4-(piperidine-4-sulfonyl)-phenyl]-amine] | 138 nM | 37 nM
NC1CCN(S(=O)(=O)c2ccc(Nc3ncc(/C=C/c4cccc5[nH]ccc45)cn3)cc2)CC1 [N-{4-[(4-aminopiperidin-1-yl)sulfonyl]phenyl}-5-[(E)-2-(1H-indol-4-yl)vinyl]pyrimidin-2-amine] | 347 nM | 13 nM
CN1CCN(C(=O)c2ccc(Nc3ncc(/C=C/c4cccc5[nH]ccc45)cn3)cc2)CC1 [5-[(E)-2-(1H-indol-4-yl)vinyl]-N-{4-[(4-methylpiperazin-1-yl)carbonyl]phenyl}pyrimidin-2-amine] | 852 nM | 41 nM
O=S(=O)(c1ccc(Nc2ncc(/C=C/c3cccc(O)c3)cn2)cc1)N1CCC(CO)CC1 [3-(2-{2-[4-(4-Hydroxymethyl-piperidine-1-sulfonyl)-phenylamino]-pyrimidin-5-yl}-vinyl)-phenol] | 225 nM | 22 nM
Nc1nc2ccc(/C=C/c3cnc(Nc4ccc(SCCN5CCOCC5)cc4)nc3)cc2s1 [6-(2-{2-[4-(2-Morpholin-4-yl-ethylsulfanyl)-phenylamino]-pyrimidin-5-yl}-vinyl)-benzothiazol-2-ylamine] | 1200 nM | 630 nM
O=S(=O)(c1ccc(Nc2ncc(/C=C/c3ccc4[nH]ncc4c3)cn2)cc1)C1CCNCC1 [{5-[2-(1H-Indazol-5-yl)-vinyl]-pyrimidin-2-yl}-[4-(piperidine-4-sulfonyl)-phenyl]-amine] | 262 nM | 163 nM
O=S(=O)(c1ccc(Nc2ncc(/C=C/c3cccc4[nH]ncc34)cn2)cc1N1CCNCC1)N1CCNCC1 [5-[(E)-2-(1H-indazol-4-yl)vinyl]-N-[3-piperazin-1-yl-4-piperazin-1-ylsulfonyl)phenyl]pyrimidin-2-amine] | 336 nM | 20 nM
O=S(=O)(c1ccc(Nc2ncc(/C=C/c3cccc(O)c3)cn2)c(C(F)(F)F)c1)N1CCNCC1 [3-(2-{2-[4-(Piperazine-1-sulfonyl)-2-trifluoromethyl-phenylamino]-pyrimidin-5-yl}-vinyl)-phenol] | 1.53e+06 nM | 44700 nM
O=S(=O)(c1ccc(Nc2ncc(/C=C/c3cccc(C(F)(F)F)c3)cn2)cc1)C1CCNCC1 [5-(3-(trifluoromethyl)styryl)-N-(4-(piperidin-4-ylsulfonyl)phenyl)pyrimidin-2-amine. TFA] | 3200 nM | 565 nM
Oc1ccc(Cl)c(/C=C/c2cnc(Nc3ccc(OCCN4CCCC4)cc3)nc2)c1 [3-((E)-2-(2-(4-(2-(pyrrolidin-1-yl)ethoxy)phenylamino)pyrimidin-5-yl)vinyl)-4-chlorophenol hydrochloride] | 972 nM | 13 nM
N=C(N)c1cccc(/C=C/c2cnc(Nc3ccc(S(=O)(=O)C4CCNCC4)cc3)nc2)c1 [3-(2-{2-[4-(Piperidine-4-sulfonyl)-phenylamino]-pyrimidin-5-yl}-vinyl)-benzamidine] | 53000 nM | 3670 nM
COc1cccc(/C=C/c2cnc(Nc3ccc(S(=O)(=O)C4CCNCC4)cc3)nc2)c1 [{5-[2-(3-Methoxy-phenyl)-vinyl]-pyrimidin-2-yl}-[4-piperidine-4-sulfonyl)-phenyl]-amine] | 664 nM | 172 nM
CN1CCC(S(=O)(=O)c2ccc(Nc3ncc(/C=C/c4cccc5[nH]ncc45)cn3)cc2)CC1 [N-(4-(1-methylpiperidin-4-ylsulfonyl)phenyl)-5-((E)-2-(1H-indazol-4-yl)vinyl)pyrimidin-2-amine] | 2040 nM | 32 nM
O=S(=O)(c1ccc(Nc2ncc(/C=C/c3cccc4[nH]ccc34)cn2)cc1)N1CCCNCC1 [[4-([1,4]Diazepane-1-sulfonyl)-phenyl]-{5-[2-(1H-indol-4-yl)-vinyl]-pyrimidin-2-yl}-amine] | 195 nM | 13 nM
O=S(=O)(c1ccc(Nc2ncc(/C=C/c3cccc4[nH]ccc34)cn2)cc1N1CCNCC1)N1CCNCC1 [5-[(E)-2-(1H-indol-4-yl)vinyl]-N-[3-piperazin-1-yl-4-(piperazin-1-ylsulfonyl)phenyl]pyrimidin-2-amine trifluoroacetic acid salt] | 885 nM | 84 nM

Stronger by IC50 (Abl (T315I)), values ahead:

IC50 (Abl (T315I)) | IC50 (Abl kinase) | SMILES
21 nM | 42 nM | Nc1nc2ccc(/C=C/c3cnc(Nc4ccc(S(=O)(=O)N5CCC(N)CC5)cc4)nc3)cc2s1 [6-{(E)-2-[2-({4-[(4-aminopiperidin-1-yl)sulfonyl]phenyl}amino)pyrimidin-5-yl]vinyl}-1,3-benzothiazol-2-amine]
96 nM | 113 nM | NC(=O)CN(C1CCNCC1)S(=O)(=O)c1ccc(Nc2ncc(/C=C/c3ccc4nc(N)sc4c3)cn2)cc1 [[4-({5-[(E)-2-(2-amino-1,3-benzothiazol-6-yl)vinyl]pyrimidin-yl}amino)phenyl]sulfonyl}-N2-piperidin-4-ylglycinamide]
12 nM | 7.2 nM | O=S(=O)(c1ccc(Nc2ncc(/C=C/c3cc(F)cc4[nH]nnc34)cn2)cc1)C1CCNCC1 [5-((E)-2-(6-fluoro-1H-benzo[d][1,2,3]triazol-4-yl)vinyl)-N-(4-(piperidin-4-ylsulfonyl)phenyl)pyrimidin-2-amine trifluoroacetate]
14 nM | 27 nM | Nc1nc2ccc(/C=C/c3cnc(Nc4ccc(S(=O)(=O)C5CCCNCC5)cc4)nc3)cc2s1 (stereo not shown) [6-(2-{2-[4-(Azepane-4-sulfonyl)-phenylamino]-pyrimidin-5-yl}-vinyl)-benzothiazol-2-ylamine]
70 nM | 130 nM | O=S(=O)(c1ccc(Nc2ncc(/C=C/c3cc(C(F)(F)F)cc4[nH]nnc34)cn2)cc1)C1CCNCC1 [5-((E)-2-(6-(trifluoromethyl)-1H-benzo[d][1,2,3]triazol-4-yl)vinyl)-N-(4-(piperidin-4-ylsulfonyl)phenyl)pyrimidin-2-amine]
45 nM | 93 nM | CN(C1CCNCC1)S(=O)(=O)c1ccc(Nc2ncc(/C=C/c3ccc4nc(N)sc4c3)cn2)cc1 [4-{5-[2-(2-Amino-benzothiazol-6-yl)-vinyl]pyrimidin-2-ylamino}-N-methyl-N-piperidin-4-yl-benzensulfonamide Hydrochloride]
37 nM | 4.1 nM | O=S(=O)(c1ccc(Nc2ncc(/C=C/c3cccc(O)c3)cn2)cc1)N1CCNCC1 [3-(2-{2-[4-(Piperazine-1-sulfonyl)-phenylamino]-pyrimidin-5-yl}-vinyl)-phenol]
21 nM | 61 nM | O=S(=O)(c1ccc(Nc2ncc(/C=C/c3cc(Cl)cc4[nH]nnc34)cn2)cc1)N1CCNCC1 [[4-(Piperazine-1-sulfonyl)-phenyl]-{5-[2-(6-chloro-1H-benzotriazol-4-yl)-vinyl]-pyrimidin-2-yl}-amine]
76 nM | 169 nM | Nc1nc2ccc(/C=C/c3cnc(Nc4ccc(S(=O)(=O)CC5CCNCC5)cc4)nc3)cc2s1 [6-(2-{2-[4-(Piperidin-4-ylmethanesulfonyl)-phenylamino]-pyrimidin-5-yl}-vinyl)-benzothiazol-2-ylamine]
36 nM | 4.6 nM | O=S(=O)(NC1CCNCC1)c1ccc(Nc2ncc(/C=C/c3cccc(O)c3)cn2)cc1 [4-{5-[2-(3-Hydroxy-phenyl)-vinyl]-pyrimidine-2-ylamino}-N-piperdin-4-yl-benzenesulfonamide Hydrochloride]
60 nM | 12 nM | O=S(=O)(NC1CCCNC1)c1ccc(Nc2ncc(/C=C/c3cccc(O)c3)cn2)cc1 (stereo not shown) [4-{5-[2-(3-Hydroxy-phenyl)-vinyl]-pyrimidine-2-ylamino}-N-piperdin-3-yl-benzenesulfonamide Hydrochloride]
